From patent publication US20200392116A1, “SUBSTITUTED HETEROCYCLES AS c-MYC TARGETING AGENTS” (NORTHWESTERN UNIVERSITY, priority 2019, published 2020)

Experiment: Potency code of Table 2 (assay not stated)

Row | Compound | Potency code
1 | O=C(COCCOCCOCCn1cc(COc2cccc3c2C(=O)N(C2CCC(=O)NC2=O)C3=O)nn1)NCCOc1ccc(-c2cc(C(F)(F)F)n[nH]2)c(O)c1-c1cncc(C(F)(F)F)c1 (centres unmarked) [NUCC-0201704] | + (>40 +)
2 | Cn1nc(C(F)(F)F)cc1-c1ccc(OCCCNC(=O)OC(C)(C)C)c(-c2cncc(C(F)(F)F)c2)c1O [NUCC-0201655] | + (>40 +)
3 | CCc1ccc(Oc2c(-c3ccc(OCc4ccc(OC)cc4)cc3O)nn(C)c2C(F)(F)F)cc1 [NUCC-0196358] | + (>40 +)
4 | CC(C)CCOc1ccc(-c2cc(C(F)(F)F)nn2C)c(O)c1-c1cncc(C#N)c1 [NUCC-0201208] | ++++ (<10 ++++)
5 | Cn1nc(C(F)(F)F)cc1-c1ccc(OCc2ccc([N+](=O)[O-])cc2)c(-c2cc(C(F)(F)F)cc(C(F)(F)F)c2)c1O [NUCC-0201648] | + (>40 +)
6 | C#CCC(N=[N+]=[N-])C(=O)NCCCOc1ccc(-c2cc(C(F)(F)F)n(C)n2)c(O)c1-c1cncc(C(F)(F)F)c1 (centres unmarked) [NUCC-0201694] | + (>40 +)
7 | Cn1nc(C(F)(F)F)cc1-c1ccc(OCc2ccc(Cl)cc2)c(-c2ccc(Cl)c(C(F)(F)F)c2)c1O [NUCC-0200975] | + (>40 +)
8 | Oc1cc(OCc2ccncc2)ccc1-c1n[nH]cc1Oc1ccccc1 [NUCC-0176251] | + (>40 +)
9 | COc1cccc(COc2ccc(-c3nn(C)cc3Oc3cc(C)ccc3C)c(O)c2)c1 [NUCC-0196289] | + (>40 +)
10 | CC(C)CCOc1ccc(-c2cc(C(F)(F)F)n[nH]2)c(O)c1-c1cncc(C#N)c1 [NUCC-0201195] | ++++ (<10 ++++)
11 | Oc1cc(OCc2ccc(Cl)cc2)ccc1-c1cc(C(F)(F)F)n(Cc2ccccc2)n1 [NUCC-0200499] | + (>40 +)
12 | Cc1ccccc1-c1c[nH]nc1-c1ccc(OCc2ccc(Cl)cc2)cc1O [NUCC-0198355] | + (>40 +)
13 | Oc1c(-c2cc(C(F)(F)F)[nH]n2)ccc(OCc2ccc(Cl)cc2)c1-c1cccc(C(F)(F)F)c1 [NUCC-0200730] | + (>40 +)
14 | CCCCCCOc1ccc(-c2cc(C(F)(F)F)n(C)n2)c(O)c1-c1cncc(C#N)c1 [NUCC-0201212] | + (>40 +)
15 | Cn1nc(-c2ccc(OCc3ccc(Cl)cc3)c(-c3cccc(C#N)c3)c2O)cc1C(N)=O [NUCC-0200558] | ++++ (<10 ++++)
16 | Cc1c(-c2ccccc2)c(-c2ccc(OCc3ccc(Cl)cc3)cc2O)nn1C [NUCC-0198300] | + (>40 +)
17 | Cn1nc(-c2ccc(OCc3ccc(Cl)cc3)c(-c3cncc(C#N)c3)c2O)cc1C(F)(F)F [NUCC-0201633] | + (>40 +)
18 | COc1ccccc1-c1cn(C)nc1-c1ccc(OCc2ccc(Cl)cc2)cc1O [NUCC-0198358] | + (>40 +)
19 | Cn1nc(C(F)(F)F)cc1-c1ccc(N)cn1 [NUCC-0200688] | + (>40 +)
20 | CCCCOc1ccc(-c2cc(C(F)(F)F)[nH]n2)c(O)c1-c1cncc(C(F)(F)F)c1 [NUCC-0201637] | + (>40 +)
21 | CCCc1c(OCc2ccc(Cl)cc2)ccc(-c2cc(C(F)(F)F)n[nH]2)c1O [NUCC-0200740] | + (>40 +)
22 | Cn1nc(C(F)(F)F)cc1-c1ccc(OCc2ccc(Cl)cc2)cc1CO [NUCC-0200978] | + (>40 +)
23 | Cn1cc(-c2cccnc2)c(-c2ccc(OCc3ccc(Cl)cc3)cc2O)n1 [NUCC-0198321] | + (>40 +)
24 | Cn1nc(C(F)(F)F)cc1-c1ccc(NCc2ccc(Cl)cc2)cn1 [NUCC-0200691] | + (>40 +)

Row | Compound | Potency code
25 | CN/N=C(/C)c1ccc(-c2c(OCc3ccc(Cl)cc3)ccc(-c3cc(C(F)(F)F)nn3C)c2O)cc1 [NUCC-0198396] | + (>40 +)
26 | CCCCOc1ccc(-c2cc(C(F)(F)F)nn2C)c(O)c1-c1cc(C(F)(F)F)cc(C(F)(F)F)c1 [NUCC-0201651] | + (>40 +)
27 | COc1ccc(-c2c[nH]nc2-c2ccc(OCc3ccc(Cl)cc3)cc2O)cc1 [NUCC-0198304] | + (>40 +)
28 | Cn1nc(-c2ccc(OCc3ccc([N+](=O)[O-])cc3)c(-c3cncc(C(F)(F)F)c3)c2O)cc1C(F)(F)F [NUCC-0201654] | + (>40 +)
29 | Oc1cc(OCc2ccc(Cl)cc2)ccc1-c1n[nH]cc1-c1ccoc1 [NUCC-0198322] | ++ (30-40 ++)
30 | N#Cc1cccc(-c2c(C(F)(F)F)n[nH]c2-c2cc(OCc3ccc(Cl)cc3)ccc2O)c1 [NUCC-0200571] | + (>40 +)
31 | Oc1cc(OCc2ccc(Cl)cc2)ccc1-c1n[nH]c(C(F)(F)F)c1Oc1cccc(F)c1 [NUCC-0196301] | + (>40 +)
32 | Cn1cc(Oc2ccccc2Cl)c(-c2ccc(OCc3ccc(Cl)cc3)cc2O)n1 [NUCC-0196305] | ++++ (<10 ++++)
33 | CCc1[nH]nc(-c2ccc(OCc3ccc(Cl)cc3)cc2O)c1-c1cccc(OC)c1 [NUCC-0198315] | + (>40 +)
34 | Cc1cc(C)cc(-c2c[nH]nc2-c2ccc(OCc3ccc(Cl)cc3)cc2O)c1 [NUCC-0198352] | + (>40 +)
35 | COc1ccc(-c2c(-c3ccc(OCc4ccc(Cl)cc4)cc3O)nn(C)c2C(F)(F)F)cc1 [NUCC-0196340] | ++ (30-40 ++)
36 | Oc1cc(OCc2ccc(Cl)cc2)ccc1-c1n[nH]cc1Oc1ccccc1 [NUCC-0176247] | + (>40 +)
37 | C#CCOc1cccc2c1C(=O)N(C1CCC(=O)NC1=O)C2=O (centres unmarked) [NUCC-0201705] | + (>40 +)
38 | Cn1cc(-c2cc(C(F)(F)F)cc(C(F)(F)F)c2)c(-c2ccc(OCc3ccc(Cl)cc3)cc2O)n1 [NUCC-0198319] | + (>40 +)
39 | O=CNc1ccc(Nc2ccc(-c3cc(C(F)(F)F)[nH]n3)c(O)c2)cc1 [NUCC-0200563] | + (>40 +)
40 | COc1ccc(-c2c(-c3ccc(OCc4ccc(Cl)cc4)cc3O)n[nH]c2C(F)(F)F)cc1 [NUCC-0196312] | + (>40 +)
41 | Cn1nc(C(F)(F)F)cc1-c1ccc(OCc2ccc(Cl)cc2)cc1C#N [NUCC-0200812] | + (>40 +)
42 | Oc1cc(OCc2ccc(Cl)cc2)ccc1-c1n[nH]cc1Oc1ccccc1Cl [NUCC-0196343] | + (>40 +)
43 | Cn1nc(-c2ccc(OCc3ccc(Cl)cc3)c(-c3cc(C(F)(F)F)cc(C(F)(F)F)c3)c2O)cc1C(=O)O [NUCC-0200971] | ++++ (<10 ++++)
44 | CCCCOc1ccc(-c2cc(C(F)(F)F)n(C)n2)c(O)c1-c1cncc(C#N)c1 [NUCC-0201639] | + (>40 +)
45 | Oc1c(-c2cc(C(F)(F)F)[nH]n2)ccc(OCc2ccc(Cl)cc2)c1-c1ccc(F)c(C(F)(F)F)c1 [NUCC-0200734] | + (>40 +)
46 | Oc1cc(OCc2ccc(Cl)cc2)ccc1-c1cc(C(F)(F)F)nc(-c2cccc(C(F)(F)F)c2)n1 [NUCC-0200500] | + (>40 +)
47 | O=C(O)c1cc(-c2ccc(OCc3ccc(Cl)cc3)c(-c3cc(C(F)(F)F)cc(C(F)(F)F)c3)c2O)n[nH]1 [NUCC-0200973] | ++++ (<10 ++++)
48 | Cc1ccc(-c2c[nH]nc2-c2ccc(OCc3ccc(Cl)cc3)cc2O)cc1 [NUCC-0196345] | + (>40 +)

Row | Compound | Potency code
49 | COc1ccc(-c2c(-c3ccc(OCc4ccc(Cl)cc4)cc3O)n[nH]c2C(F)(F)F)cc1OC [NUCC-0196283] | ++++ (<10 ++++)
50 | COc1ccc(-c2c(-c3ccc(OCc4ccc(Cl)cc4)cc3O)nn(C)c2C)cc1 [NUCC-0198307] | + (>40 +)
51 | Cc1cc(C)cc(-c2cn(C)nc2-c2ccc(OCc3ccc(Cl)cc3)cc2O)c1 [NUCC-0198353] | + (>40 +)
52 | COc1ccc(CCOc2ccc(-c3cc(C(F)(F)F)n[nH]3)c(O)c2-c2cc(C(F)(F)F)cc(C(F)(F)F)c2)cc1 [NUCC-0201027] | +++ (10-30 +++)
53 | Cn1nc(-c2ccc(Nc3ccc(F)c(F)c3)cc2O)cc1C(F)(F)F [NUCC-0200560] | + (>40 +)
54 | Cn1nc(C(F)(F)F)cc1-c1ccc(NC(=O)c2ccc(Cl)cc2)cc1O [NUCC-0200817] | + (>40 +)
55 | Oc1c(-c2cc(C(F)(F)F)[nH]n2)ccc(OCc2ccc(Cl)cc2)c1C1CC1 [NUCC-0201910] | + (>40 +)
56 | Cn1nc(-c2ccc(OCc3cccnc3)c(-c3cc(C(F)(F)F)cc(C(F)(F)F)c3)c2O)cc1C(F)(F)F [NUCC-0201023] | + (>40 +)
57 | CCCCOc1ccc(-c2cc(C(F)(F)F)nn2C)c(O)c1-c1cncc(C#N)c1 [NUCC-0201638] | + (>40 +)
58 | Oc1cc(OCc2ccc(Cl)cc2)ccc1-c1cc(C(F)(F)F)nc(-c2cc(C(F)(F)F)cc(C(F)(F)F)c2)n1 [NUCC-0200501] | + (>40 +)
59 | Cn1nc(C(F)(F)F)c(-c2ccccc2)c1-c1ccc(OCc2ccc(Cl)cc2)cc1O [NUCC-0198296] | + (>40 +)
60 | CCCCCCOc1ccc(-c2cc(C(F)(F)F)n(C)n2)c(O)c1-c1cncc(C(F)(F)F)c1 [NUCC-0201210] | + (>40 +)
61 | CCc1ccc(Oc2c(-c3ccc(Oc4ccc(Cl)cc4)cc3O)n[nH]c2C(F)(F)F)cc1 [NUCC-0200681] | ++++ (<10 ++++)
62 | CCCCOc1ccc(-c2cc(C(F)(F)F)n[nH]2)c(O)c1-c1cc(C(F)(F)F)cc(C(F)(F)F)c1 [NUCC-0201031] | + (>40 +)
63 | Oc1c(-c2cc(C(F)(F)F)[nH]n2)ccc(OCc2ccc(Cl)cc2)c1-c1ccsc1 [NUCC-0201909] | + (>40 +)
64 | CCc1ccc(Oc2c(-c3ccc(O)cc3N)nn(C)c2C(F)(F)F)cc1 [NUCC-0200682] | + (>40 +)
65 | CCc1ccc(Oc2c(-c3ccc(OCCc4cccc(C(F)(F)F)c4)cc3O)n[nH]c2C(F)(F)F)cc1 [NUCC-0176245] | ++ (30-40 ++)
66 | CCc1ccc(Oc2cn(C)nc2-c2ccc(OCc3ccc(Cl)cc3)cc2O)cc1 [NUCC-0176260] | + (>40 +)
67 | Cc1ccc(C)c(Oc2c[nH]nc2-c2ccc(OCc3cccc(Cl)c3)cc2O)c1 [NUCC-0196286] | + (>40 +)
68 | Cn1nc(-c2ccc(OCc3ccc(Cl)cc3)c(-c3ccc(F)cc3)c2O)cc1C(F)(F)F [NUCC-0196348] | +++ (10-30 +++)
69 | NCCCOc1ccc(-c2cc(C(F)(F)F)n[nH]2)c(O)c1-c1ccc(Cl)c(C(F)(F)F)c1 [NUCC-0201646] | + (>40 +)
70 | COc1ccc(COc2ccc(-c3cc(C(F)(F)F)n[nH]3)c(O)c2-c2cc(C(F)(F)F)cc(C(F)(F)F)c2)cc1 [NUCC-0201041] | + (>40 +)
71 | CCc1ccc(Oc2c(-c3ccc(OCc4ccc(Cl)cc4)cc3O)nn(C)c2CC)cc1 [NUCC-0196294] | + (>40 +)
